Assay results: PubChem BioAssay (NCI)
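These data come from cells grown in 96-well plates and exposed to compound for 48 hours at five concentrations. TGI marks complete inhibition of growth.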

Key:
Experiment in all cases: DTP human tumour cell line panel, 48 h
MALME-3M melanoma = test system: MALME-3M melanoma
HL-60(TB) leukemia = test system: HL-60(TB) leukemia
SF-268 CNS = test system: SF-268 CNS
SK-MEL-28 melanoma = test system: SK-MEL-28 melanoma
NCI-H226 lung = test system: NCI-H226 lung
SF-295 CNS = test system: SF-295 CNS
SK-MEL-5 melanoma = test system: SK-MEL-5 melanoma
PC-3 prostate = test system: PC-3 prostate
T-47D breast = test system: T-47D breast
U251 CNS = test system: U251 CNS
SR leukemia = test system: SR leukemia
K-562 leukemia = test system: K-562 leukemia
HCT-15 colon = test system: HCT-15 colon
MDA-N = test system: MDA-N
COLO 205 colon = test system: COLO 205 colon
HT29 colon = test system: HT29 colon
NCI/ADR-RES ovarian = test system: NCI/ADR-RES ovarian
M14 melanoma = test system: M14 melanoma
DU-145 prostate = test system: DU-145 prostate

Row | Compound | TGI (MALME-3M melanoma) | TGI (HL-60(TB) leukemia) | TGI (SF-268 CNS) | TGI (SK-MEL-28 melanoma) | TGI (NCI-H226 lung) | TGI (SF-295 CNS) | TGI (SK-MEL-5 melanoma) | TGI (PC-3 prostate) | TGI (T-47D breast) | TGI (U251 CNS) | TGI (SR leukemia) | TGI (K-562 leukemia) | TGI (HCT-15 colon) | TGI (MDA-N) | TGI (COLO 205 colon) | TGI (HT29 colon) | TGI (NCI/ADR-RES ovarian) | TGI (M14 melanoma) | TGI (DU-145 prostate)
1 | CCOC(=O)/C=C(\C(=O)OCC)n1ccc(=O)n(CC(=O)OCC)c1=O | 5.41 µM | 1.22 µM | 41.1 µM | 15.7 µM | 12.8 µM | 34.6 µM | 25.8 µM | 11.2 µM | 7.39 µM | 19.5 µM | 5.27 µM | 4 µM | 4.4 µM | 17 µM | 3.16 µM | 16.2 µM | 60.8 µM | 5.48 µM | 31.1 µM
2 | COC(=O)[C@@]12C(=O)C(C)C(=O)[C@]1(C)C(C)=C[C@H]1[C@]3(C=O)CC[C@H](OC(C)=O)C(C)(C)[C@H]3CC[C@@]12C (stereo partly specified) | > 100 µM | 52.3 µM | > 100 µM | > 100 µM | > 100 µM | > 100 µM | > 100 µM | > 100 µM | > 100 µM | > 100 µM | > 100 µM | > 100 µM | > 100 µM | > 100 µM | > 100 µM | > 100 µM | > 100 µM | > 100 µM | > 100 µM
3 | O=C1C(=C(I)I)c2ccccc2-c2ccccc21 | 4.08 µM | > 21.3 µM | 20.4 µM | 7.94 µM | 36.4 µM | 31.8 µM | 19.7 µM | 13.5 µM | > 100 µM | 17.6 µM | 10.2 µM | > 34.9 µM | 8.51 µM | 4.6 µM | 3.66 µM | 12.2 µM | 12.2 µM | 9.15 µM | 11.2 µM
4 | C=C1C(=O)O[C@H]2[C@H]3O[C@@H](C[C@@H]12)[C@@]1(C)CC[C@H](O1)C(C)=CCC[C@H]3C | 3.15 µM | 1.03 µM | 2.95 µM | 3.36 µM | 7.02 µM | 17.9 µM | 2.81 µM | 2.97 µM | 6.3 µM | 2.97 µM | 0.28 µM | 3.09 µM | 3.2 µM | 3 µM | 3.47 µM | 3.33 µM | 3.33 µM | 3.15 µM | 2.86 µM
